Results published in patent US9192601B2, “Methods for enhancing muscle performance and tone” (Salk Institute for Biological Studies, priority 2006, dated 2015).

How the values were obtained:
[1] = system: C57B/6J mice; assay: Treadmill running endurance test; type: in vivo, mouse; settings: 500 mg/kg/day, 4 weeks, no exercise
Procedure: Mice were acclimated to moderate treadmill running (10 m/min for 15 min) every other day for 1 week. After acclimation, basal running endurance was determined by placing each mouse on a treadmill, gradually increasing the speed from 0 to 15 m/min, and maintaining 15 m/min until the mouse was exhausted. The time and distance run until exhaustion were recorded as the basal endurance values (Week 0).
Treatments were administered orally.
Expression of biomarkers characteristic of an oxidative phenotype in skeletal muscle, typically, has been correlated with increased oxidative performance (e.g., increased running endurance) of such skeletal muscle. […] Accordingly, to determine the functional effects of ligand, age and weight matched cohorts of treated and control mice were subjected to an endurance treadmill performance test before (week 0) and after (week 5) treatment.
In addition to affecting the contractile apparatus of skeletal muscle, exercise training also increases skeletal muscle mitochondrial density (e.g., Freyssenet et al., Arch. Physiol. Biochem., 104(2): 129-141, 1996). […] Mice in all groups were acclimated to moderate treadmill running and basal running endurance was determined as described in Example 1. Thereafter, mice in the exercise-trained groups received four weeks (5 days/week) of exercise training on a treadmill inclined at 5 degrees. […] At the end of four weeks, all exercise-trained mice were running for 50 min/day at 18 m/min. […] Unless otherwise noted, V, GW, Tr and GW+Tr subjects described in this and the examples below were similarly treated. At the end of the drug treatment and/or training protocol (Week 5) 6 mice per group were subjected to the running test. […] RNA was prepared real time quantitative PCR performed as described in Example 1.
At the end of the drug treatment and/or training protocol (Week 5) 6 mice per group were subjected to the running test.
At the end of the drug treatment and/or training protocol (Week 5), running endurance of six mice per group was determined in the same manner as was basal running endurance. […] on three mice in each group to confirm that changes observed in the skeletal muscle were not due to the acute run, but were related to the exercise training.

[2] = system: myoglobin, UCP3, cytochrome c (CYCS) and SCDl; assay: Western blotting of oxidative biomarkers in quadriceps; type: in vivo, mouse; settings: AICAR 500 mg/kg/day, 4 weeks, quadriceps
Procedure: In addition to gene expression, protein expression was determined for selective oxidative biomarkers including myoglobin, UCP3, cytochrome c (CYCS) and SCDl, using Western blotting. Protein homogenates were prepared from quadriceps muscle, separated by SDS polyacrylamide gel electrophoresis, transferred to blotting membrane and probed with antibodies specific for myoglobin (Dako), UCP3 (Affinity Bioreagents), cytochrome c (Santacruz) SCDl (Santacruz), and, as a loading control, tubulin (Sigma).

[3] = system: quadriceps muscle; assay: Microarray analysis of quadriceps (Affymetrix mouse genome 430A 2.0); type: in vivo
[4] = system: AMPK; assay: Western blot of phospho-AMPK in quadriceps; type: in vivo, mouse; settings: AICAR 500 mg/kg/day, 4 weeks, quadriceps
Text: Exercise training is known to activate kinases, such as p44/42 MAPK and AMPK, which regulate gene expression in skeletal muscle (Chen et al., Diabetes, 52:2205-12, 2003; Goodyear et al., Am. J. Physiol, 271:[…]-8, 1996). AMPK affects skeletal muscle gene expression and oxidative metabolism (Chen et al., Diabetes. 52: 2205-12, 2003, Reznick et al., J. Physiol. 574: 33-9, 2006). The interaction between exercise-regulated kinases and PPARδ signaling is described in this Example. The levels of phospho-p44/42 MAPK and phospho-AMPK a subunit and total AMPK were determined in protein homogenates of quadriceps muscle by Western blot. Antibodies specific for phospho-p44/42 MAPK, phospho- and total-AMPK αl antibodies were obtained from Cell Signaling. The phospho-specific AMPK αl antibody recognizes the key activating threonine in the activation loop.

[5] = Oxygen consumption; type: in vivo, mouse; settings: AICAR 500 mg/kg/day, 4 weeks
[6] = AICAR alone, untrained mice, quadriceps

Structure (SMILES): NC(=O)c1ncn([C@@H]2O[C@H](CO)[C@@H](O)[C@H]2O)c1N [AICAR, 5-amino-4-imidazolecarboxamide riboside]
- ran further than vehicle-treated mice (distance) [1]: ~44%
- ran longer than vehicle-treated mice (time) [1]: ~23%
- expression of UCP3 (immunoblot) [2]: increased expression
- Aacs expression [3, 6]: 1.875
- Acly expression [3, 6]: 1.687
- Adipoq expression [3, 6]: 2.043
- Ak2 expression [3, 6]: 1.486
- Apoe expression [3, 6]: 1.403
- Cd36 expression [3, 6]: 1.386
- Ces3 expression [3, 6]: 1.516
- Cidea expression [3, 6]: 5.021
- Dgat2 expression [3, 6]: 2.034
- Elovl6 expression [3, 6]: 2.134
- Fabp4 expression [3, 6]: 1.709
- Fasn expression [3, 6]: 2.098
- Lep expression [3, 6]: 2.047
- Lipe expression [3, 6]: 1.64
- Lpl expression [3, 6]: 1.386
- Mgll expression [3, 6]: 1.503
- Mgst1 expression [3, 6]: 1.602
- Nrip1 expression [3, 6]: 1.474
- Pck1 expression [3, 6]: 2.68
- Pcx expression [3, 6]: 1.393
- Pdk4 expression [3, 6]: 1.321
- Pparg expression [3, 6]: 3.027
- Retn expression [3, 6]: 1.891
- Scd1 expression [3, 6]: 1.931
- Sdhd expression [3, 6]: 1.529
- Sfxn1 expression [3, 6]: 1.713
- Slc25a5 expression [3, 6]: 1.372
- Sult1a1 expression [3, 6]: 2.021
- Tspo expression [3, 6]: 1.441
- Ucp1 expression [3, 6]: 3.623
- Ucp3 expression [3, 6]: 1.258
- number of upregulated genes linked to oxidative metabolism ([3]; AICAR treatment alone): 32 genes
- phosphorylation of AMPK a subunit and acetyl CoA carboxylase (ACC) [4]: increased phosphorylation
- oxygen consumption [5]: increased
